{"source": "ChEMBL document CHEMBL5113527", "about": "“First-in-Class Hydrazide-Based HDAC6 Selective Inhibitor with Potent Oral Anti-Inflammatory Activity by Attenuating NLRP3 Inflammasome Activation” (J Med Chem, 2022)", "key": {"Histone deacetylase 4": {"molecular_target": "Histone deacetylase 4 (Homo sapiens, UniProt P56524)", "sequence (P56524 whole entry)": "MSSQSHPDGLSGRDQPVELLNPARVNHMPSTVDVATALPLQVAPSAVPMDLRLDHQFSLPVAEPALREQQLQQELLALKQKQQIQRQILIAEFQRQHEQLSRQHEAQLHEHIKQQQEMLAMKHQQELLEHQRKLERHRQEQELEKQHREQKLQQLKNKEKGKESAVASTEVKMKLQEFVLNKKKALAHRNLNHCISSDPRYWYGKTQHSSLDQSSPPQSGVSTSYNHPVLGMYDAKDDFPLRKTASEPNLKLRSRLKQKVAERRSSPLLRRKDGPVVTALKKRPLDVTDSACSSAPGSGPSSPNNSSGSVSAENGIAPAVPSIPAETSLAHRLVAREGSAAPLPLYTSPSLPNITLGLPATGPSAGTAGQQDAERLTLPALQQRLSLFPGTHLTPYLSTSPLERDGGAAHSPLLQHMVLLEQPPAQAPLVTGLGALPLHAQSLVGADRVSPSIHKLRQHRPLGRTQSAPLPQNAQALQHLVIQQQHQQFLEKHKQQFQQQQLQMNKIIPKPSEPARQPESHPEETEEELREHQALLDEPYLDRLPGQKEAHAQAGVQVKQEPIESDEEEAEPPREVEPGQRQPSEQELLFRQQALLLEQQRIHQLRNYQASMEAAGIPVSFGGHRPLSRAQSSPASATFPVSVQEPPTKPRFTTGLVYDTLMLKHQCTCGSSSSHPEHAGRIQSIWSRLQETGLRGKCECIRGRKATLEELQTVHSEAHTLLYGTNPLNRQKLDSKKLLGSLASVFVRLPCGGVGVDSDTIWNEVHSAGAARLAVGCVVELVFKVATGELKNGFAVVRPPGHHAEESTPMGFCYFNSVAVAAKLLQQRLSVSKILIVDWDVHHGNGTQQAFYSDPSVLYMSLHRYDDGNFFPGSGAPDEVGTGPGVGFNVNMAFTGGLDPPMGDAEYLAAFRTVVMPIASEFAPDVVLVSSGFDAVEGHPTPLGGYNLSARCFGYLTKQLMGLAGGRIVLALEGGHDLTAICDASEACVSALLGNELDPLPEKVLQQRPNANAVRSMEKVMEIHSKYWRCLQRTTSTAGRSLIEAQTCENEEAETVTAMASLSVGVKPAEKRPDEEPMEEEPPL", "test": "Inhibition of recombinant HDAC4 (unknown origin) using Boc-Lys (trifluoroacetyl) AMC as substrate preincubated for 1 hr followed by substrate addition and measured after 2 hrs by fluorescence based microplate reader analysis"}, "[1]": {"test": "Inhibition of HDAC11(unknown origin) preincubated for 1 hr followed by substrate addition and measured after 2 hrs by fluorescence based microplate reader analysis", "set-up": "species or system Homo sapiens"}, "[2]": {"molecular_target": "T1, Protein deacetylase HDAC6 (Homo sapiens, UniProt Q9UBN7)", "T1 sequence (Q9UBN7 whole entry)": "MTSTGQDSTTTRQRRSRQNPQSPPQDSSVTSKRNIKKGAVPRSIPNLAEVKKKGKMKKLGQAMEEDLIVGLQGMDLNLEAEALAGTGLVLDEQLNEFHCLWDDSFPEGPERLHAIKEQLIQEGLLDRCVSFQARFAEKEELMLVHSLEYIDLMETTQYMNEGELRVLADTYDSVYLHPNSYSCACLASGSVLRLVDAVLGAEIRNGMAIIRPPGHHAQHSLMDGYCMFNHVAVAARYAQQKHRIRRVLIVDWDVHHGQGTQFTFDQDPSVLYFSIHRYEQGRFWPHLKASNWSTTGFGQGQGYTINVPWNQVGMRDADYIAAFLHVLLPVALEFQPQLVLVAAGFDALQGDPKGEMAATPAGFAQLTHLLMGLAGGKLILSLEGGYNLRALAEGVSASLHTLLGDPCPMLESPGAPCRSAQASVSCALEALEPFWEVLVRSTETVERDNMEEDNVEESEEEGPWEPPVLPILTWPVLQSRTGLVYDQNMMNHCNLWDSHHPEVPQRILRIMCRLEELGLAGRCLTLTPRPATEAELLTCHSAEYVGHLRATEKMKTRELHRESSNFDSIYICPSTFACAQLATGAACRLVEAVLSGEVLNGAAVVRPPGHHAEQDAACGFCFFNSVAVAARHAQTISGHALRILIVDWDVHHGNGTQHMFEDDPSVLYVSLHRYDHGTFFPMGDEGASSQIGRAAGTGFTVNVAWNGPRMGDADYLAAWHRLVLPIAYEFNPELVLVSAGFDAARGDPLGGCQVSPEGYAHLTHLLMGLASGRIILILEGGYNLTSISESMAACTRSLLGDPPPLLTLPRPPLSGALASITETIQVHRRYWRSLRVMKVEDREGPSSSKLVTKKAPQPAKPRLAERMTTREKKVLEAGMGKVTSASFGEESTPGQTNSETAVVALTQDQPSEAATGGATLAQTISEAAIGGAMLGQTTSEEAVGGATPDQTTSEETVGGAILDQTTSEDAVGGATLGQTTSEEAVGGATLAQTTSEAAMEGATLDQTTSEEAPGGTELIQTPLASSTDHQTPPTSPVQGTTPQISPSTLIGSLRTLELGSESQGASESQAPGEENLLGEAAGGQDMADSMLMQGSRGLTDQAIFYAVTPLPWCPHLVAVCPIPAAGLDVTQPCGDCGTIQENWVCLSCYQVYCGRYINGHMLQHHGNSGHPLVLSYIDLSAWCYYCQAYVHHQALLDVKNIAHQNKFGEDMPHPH", "test": "Inhibition of recombinant HDAC6 (unknown origin) using Boc-Lys(acetyl)-AMC as substrate preincubated for 30 mins followed by substrate addition and measured after 2 hrs by fluorescence based microplate reader analysis"}, "[3]": {"test": "AUC(0 to infinity) in CD-1 mouse at 20 mg/kg, po measured after 0.083 to 24 hrs by LC-MS/MS analysis", "type": "ADME, organism-based", "set-up": "dose 20 mg/kg, time 0.083-24 hrs, route po", "conditions": "in vivo"}, "[4]": {"test": "Half life in CD-1 mouse at 20 mg/kg, po measured after 0.083 to 24 hrs by LC-MS/MS analysis", "type": "ADME, organism-based", "conditions": "in vivo, time 0.083-24 hrs"}}}
{"compound": "CCNNC(=O)c1ccc(CN2c3ccccc3C=Cc3ccncc32)cc1", "values": [{"measurement": "IC50", "setting": "Histone deacetylase 4", "result": "> 5", "unit": "µM"}, {"measurement": "IC50", "setting": "[1]", "result": "> 5", "unit": "µM"}, {"measurement": "IC50", "setting": "[2]", "result": 0.0317, "unit": "µM"}, {"measurement": "AUC(0-inf)", "setting": "[3]", "result": 10300, "unit": "ng·h/mL"}, {"measurement": "half-life", "setting": "[4]", "result": 6.8, "unit": "h"}]}
